US20260364184A1, “COMPOUND BASED ON OXOISOINDOLINYL-SUBSTITUTED TETRAHYDROPYRIMIDINE-DIONE AND USE THEREOF” (GLUETACS THERAPEUTICS (SHANGHAI) CO., LTD., priority 2023, published 2026)
Where two headings read alike, the source gives them in different places. Values belong to the molecule of their own block, whether it stands above or below them.

Experiments:
FAK = target: T1, FAK (Homo sapiens, UniProt Q05397); assay: Western blot degradation of FAK; assay type: cell-based; settings: A549 Cell; 24 hours
T1 construct: expression of target proteins in cells; endogenous in cells
Protocol: (§1) Conventional Western blot assay was performed to evaluate the effects of the compounds of the present disclosure on the expression of target proteins in cells.
(§2) (1) Cell Seeding and Protein Harvesting: The selected cells were processed according to the cell seeding procedure and protein harvesting procedure in Table II-2.
(§3) (2) To the collected supernatant, 5×SDS sample loading buffer was added, followed by denaturation at 95 °C for 5 minutes. The denatured samples were then separated by SDS-PAGE electrophoresis on a polyacrylamide gel. Proteins were transferred to a nitrocellulose membrane (0.45 μm NC membrane), blocked with blocking buffer at room temperature for 1 hour, and subjected to antibody incubation and development procedures according to the antibody manufacturer's instructions (Cell Signaling Technology).
(§4) Half-Maximal Degradation Concentration value (the drug concentration required for degrading proteins by 50%, abbreviated as DC50) reads method: comparing the grayscale values of Western blot bands from drug-treated samples with those from blank DMSO-treated controls, and identifying the drug concentration range at which the grayscale value is half that of the DMSO-treated control bands.
(§5) DC50 values can be calculated using ImageJ software to measure grayscale values of Western blot bands from drug-treated samples. The concentration-response curve is fitted to estimate the drug concentration corresponding to half the grayscale value.
(§6) Target protein remaining (%) refers to the percentage of target protein remaining in cells after treatment with protein degrader compounds.
(§7) Calculation method for target protein remaining (%): Use ImageJ software to measure grayscale values of Western blot bands from drug (protein degrader)-treated samples. The grayscale value of drug-treated bands is divided by that of internal control protein bands, and the resulting quotient is normalized to obtain the relative percentage of remaining target protein after protein degrader treatment.
(§8) Target protein degradation rate (%)=1−target protein remaining (%).

[1] = test system: Human myeloid monocytic leukemia cell line (MV-4-11); assay: Inhibition of MV-4-11 cell proliferation (CellTiter luminescent viability); assay type: cell-based; settings: Homo sapiens, MV4-11, 96 hours; for inhibition at 0.01 µM: MV-4-11, 10 nM, read-out: Inhibition Rate at 10 nM (%); for inhibition at 0.5 µM: MV-4-11, 500 nM, read-out: Inhibition Rate at 500 nM (%)
Outline: (§9)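 Cells are seeded in 96-well plates, cultured at 37 °C, 5% CO2, and treated next day with 5-fold serial compound dilutions (stock series from 2000 μM; 0.5 μL into 100 μL medium). Viability is read by CellTiter-Meiluncell luminescence after the set exposure, and IC50 is taken from growth-inhibition curves.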

[2] = test system: Human breast cancer cell line (MDA-MB-231); assay: Inhibition of MDA-MB-231 cell proliferation (CellTiter luminescent viability); assay type: cell-based; settings: Table IG3, FAK inhibitor-based, 96 hours
Protocol: The tumor cells used herein were cultured in a cell culture medium listed in table 3 at 37 °C in an incubator with 5% CO2. Prior to experimentation, all cell lines used were correctly identified by STR profiling, and tested negative for mycoplasma contamination using a mycoplasma detection kit through routine screenings.
The IC50 values of the compounds of the present disclosure (including the compounds in Table 1, Table 2, and Examples 1-468) were determined using the CellTiter-Meiluncell Luminescent Cell Viability Assay Kit from Dalian Meilun Biotech Co., Ltd. The detailed procedure is as follows: Tumor cells were seeded in 96-well cell culture plates at the densities specified in Table 4. On the following day, the test compounds of the present disclosure were subjected to serial dilution. The dilution can be performed according to one of the following two methods: • (1) The first dilution method: The test compounds of the present disclosure (including the compounds in Table 1, Table 2, and Examples 1-468) were subjected to 5-fold serial dilutions starting from a highest concentration of 2000 μM, resulting in a total of 9 concentrations from high to low (2000, 400, 80, 16, 3.2, 0.64, 0.128, 0.0256, 0.00512 μM). Subsequently, 0.5 μL of the test compound dilution was transferred into the 96-well plate containing the cells, with each well containing 100 μL of cell culture medium. […] Into the 96-well plate, the diluted test compounds and corresponding detection reagents were added, resulting in final test compound concentrations of 500 nM and 10 nM, respectively. The experimental procedure is described below using the diluted 2 μM test compound as an example.
0.5 μL of the aforementioned diluted compound of the present disclosure (including the compounds in Table 1, Table 2, and Examples 1-468) was added to the seeded cells in 100 μL of medium, yielding a final test compound concentration of 10 nM. After the cells were treated with the compounds of the present disclosure for a specified period, the cell viability assay reagent was added to the culture medium according to the kit's instructions to determine cell viability. […] All controls were treated using the same procedure as the compounds of the present disclosure. The growth inhibition curves for the compounds of the present disclosure were plotted using Prism GraphPad software, and the IC50 values were calculated therefrom.

[3] = target: T2, human Cereblon WT GST-tagged protein (CRBN) (Homo sapiens, UniProt Q96SW2); assay: CRBN binding by HTRF (Cereblon binding kit)
T2 construct: purchased CISBIO 64BDCRBNPEH
Outline: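 GST-tagged human Cereblon WT was incubated 3 h at room temperature with compound, thalidomide-Re tracer and Eu anti-GST antibody. Final compound concentrations were 10 to 0.00064 µM (7 points) or 2 and 0.5 µM. Inhibition rate was calculated from HTRF 665/620 nm ratios versus solvent and blank controls.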

C-ABL = target: T3, C-ABL (Homo sapiens, UniProt P00519); assay: Western blot degradation of C-ABL; assay type: cell-based; settings: K562 Cell; 24 hours
T3 construct: K562 also holds p210 BCR-ABL (BCR P11274 fused to ABL1)
Protocol: as §1, §2, §3, §4, §5, §6, §7, §8

[4] = test system: Human Multiple myeloma cell line (MM.1S); assay: Inhibition of MM.1S cell proliferation (CellTiter luminescent viability); assay type: cell-based; settings: Homo sapiens, MM1.S, 96 hours; for inhibition at 0.01 µM: 10 nM, read-out: Inhibition Rate at 10 nM (%); for inhibition at 0.5 µM: 500 nM, read-out: Inhibition Rate at 500 nM (%)
Outline: as §9

[5] = test system: Human acute lymphocytic leukemia T lymphocytes cell line (CCRF-CEM); assay: Inhibition of CCRF-CEM cell proliferation (CellTiter luminescent viability); assay type: cell-based; settings: Homo sapiens, 96 h, Table IL3, BCR-ABL inhibitor-based
[6] = Table IL2, BCR-ABL inhibitor-based
[7] = Table IL1, BCR-ABL inhibitor-based

T1 sequence (Q05397 whole entry): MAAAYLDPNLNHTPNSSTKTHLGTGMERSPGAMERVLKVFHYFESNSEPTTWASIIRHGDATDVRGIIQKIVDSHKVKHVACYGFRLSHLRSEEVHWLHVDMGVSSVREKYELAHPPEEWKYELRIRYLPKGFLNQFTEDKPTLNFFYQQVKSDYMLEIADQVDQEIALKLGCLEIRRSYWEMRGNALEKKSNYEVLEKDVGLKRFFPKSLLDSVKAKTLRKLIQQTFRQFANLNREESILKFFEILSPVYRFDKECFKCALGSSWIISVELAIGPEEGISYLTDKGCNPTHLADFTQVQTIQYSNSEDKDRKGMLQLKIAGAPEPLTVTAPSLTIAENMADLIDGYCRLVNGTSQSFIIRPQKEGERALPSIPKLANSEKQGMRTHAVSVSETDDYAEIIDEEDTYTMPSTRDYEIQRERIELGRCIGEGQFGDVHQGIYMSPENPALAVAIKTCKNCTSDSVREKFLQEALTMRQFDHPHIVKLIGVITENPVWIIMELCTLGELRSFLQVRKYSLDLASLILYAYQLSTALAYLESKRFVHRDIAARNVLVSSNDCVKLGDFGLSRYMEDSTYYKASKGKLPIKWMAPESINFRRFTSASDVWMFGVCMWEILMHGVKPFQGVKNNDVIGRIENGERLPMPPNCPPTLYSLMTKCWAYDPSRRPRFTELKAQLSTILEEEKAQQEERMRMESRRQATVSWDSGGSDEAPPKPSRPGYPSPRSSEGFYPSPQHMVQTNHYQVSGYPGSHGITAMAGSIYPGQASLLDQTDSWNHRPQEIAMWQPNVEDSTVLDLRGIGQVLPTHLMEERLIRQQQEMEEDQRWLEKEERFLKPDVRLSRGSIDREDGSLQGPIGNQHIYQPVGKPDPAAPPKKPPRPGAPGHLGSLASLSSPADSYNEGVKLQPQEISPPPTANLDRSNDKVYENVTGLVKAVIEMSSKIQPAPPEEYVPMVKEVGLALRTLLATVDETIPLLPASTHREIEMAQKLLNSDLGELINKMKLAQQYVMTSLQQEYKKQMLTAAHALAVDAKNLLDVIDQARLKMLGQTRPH
T2 sequence (Q96SW2 whole entry): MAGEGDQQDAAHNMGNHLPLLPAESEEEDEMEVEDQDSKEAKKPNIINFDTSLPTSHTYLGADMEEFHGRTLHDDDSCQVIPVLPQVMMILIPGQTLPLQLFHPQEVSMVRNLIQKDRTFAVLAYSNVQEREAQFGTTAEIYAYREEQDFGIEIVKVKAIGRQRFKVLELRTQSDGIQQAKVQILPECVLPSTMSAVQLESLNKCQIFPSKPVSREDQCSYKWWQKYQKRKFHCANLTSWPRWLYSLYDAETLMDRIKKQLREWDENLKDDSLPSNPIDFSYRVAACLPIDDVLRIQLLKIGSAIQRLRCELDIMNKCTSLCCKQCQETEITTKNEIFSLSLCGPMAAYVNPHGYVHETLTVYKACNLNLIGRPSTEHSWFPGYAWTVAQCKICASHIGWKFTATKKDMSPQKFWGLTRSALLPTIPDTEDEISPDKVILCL
T3 sequence (P00519 whole entry, the tested form may be a part): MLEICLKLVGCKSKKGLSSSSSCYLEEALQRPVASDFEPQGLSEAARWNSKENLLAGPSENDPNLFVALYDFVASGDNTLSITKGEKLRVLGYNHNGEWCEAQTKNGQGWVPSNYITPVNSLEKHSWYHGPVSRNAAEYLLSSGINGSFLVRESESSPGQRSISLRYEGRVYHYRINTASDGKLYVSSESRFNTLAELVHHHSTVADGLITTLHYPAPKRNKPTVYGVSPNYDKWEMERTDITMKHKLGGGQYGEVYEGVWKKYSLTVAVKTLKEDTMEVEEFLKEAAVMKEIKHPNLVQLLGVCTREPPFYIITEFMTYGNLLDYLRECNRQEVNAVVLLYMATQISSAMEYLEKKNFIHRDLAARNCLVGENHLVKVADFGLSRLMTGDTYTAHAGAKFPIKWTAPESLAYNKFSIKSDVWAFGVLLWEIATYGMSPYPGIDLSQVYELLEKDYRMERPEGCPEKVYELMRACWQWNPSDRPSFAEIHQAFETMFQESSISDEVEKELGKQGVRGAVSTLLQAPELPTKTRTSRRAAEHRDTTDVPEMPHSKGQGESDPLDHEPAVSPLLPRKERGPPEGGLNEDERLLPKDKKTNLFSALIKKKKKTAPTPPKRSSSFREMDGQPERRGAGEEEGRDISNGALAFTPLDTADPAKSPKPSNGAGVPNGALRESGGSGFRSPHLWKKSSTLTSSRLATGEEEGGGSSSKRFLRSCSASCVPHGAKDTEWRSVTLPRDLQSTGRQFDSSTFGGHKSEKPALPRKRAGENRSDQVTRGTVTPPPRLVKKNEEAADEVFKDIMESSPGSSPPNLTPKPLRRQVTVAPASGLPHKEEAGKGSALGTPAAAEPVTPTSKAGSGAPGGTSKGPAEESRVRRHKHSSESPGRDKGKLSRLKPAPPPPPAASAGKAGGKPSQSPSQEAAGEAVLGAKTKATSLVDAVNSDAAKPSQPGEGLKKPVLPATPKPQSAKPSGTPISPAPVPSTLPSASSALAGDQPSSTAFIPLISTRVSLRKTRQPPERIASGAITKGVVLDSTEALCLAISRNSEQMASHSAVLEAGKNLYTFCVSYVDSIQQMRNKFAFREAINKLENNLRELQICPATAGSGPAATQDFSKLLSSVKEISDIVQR
T3 sequence (Q96SW2 whole entry partner, the tested form may be a part): as the sequence (Q96SW2 whole entry) above

Degradation of substrate protein FAK (substrate protein remaining %) (FAK): A (0%≤substrate protein remaining %≤80%)
Structure (SMILES): CNC(=O)c1ccccc1Nc1cc(Nc2cc(C)c(C3CCN(CC4CCN(c5cccc6c5C(=O)N(N5CCC(=O)NC5=O)C6=O)CC4)CC3)cc2OC(C)C)ncc1C(F)(F)F [GT-07666, 2-((2-((4-(1-((1-(2-(2,4-dioxotetrahydropyrimidin-1(2H)-yl)-1,3-dioxoisoindolin-4-yl)piperidin-4-yl)methyl)piperidin-4-yl)-2-isopropoxy-5-methylphenyl)amino)-5-(trifluoromethyl)pyridin-4-yl)amino)-N-methylbenzamide]

Degradation of substrate protein FAK (substrate protein remaining %) (FAK): A (0%≤substrate protein remaining %≤80%)
Structure (SMILES): CS(=O)(=O)c1cccc(CNc2nc(Nc3ccc(N4CCN(CC5CCN(c6ccc7c(c6)C(=O)N(N6CCC(=O)NC6=O)C7=O)CC5)CC4)cc3)ncc2C(F)(F)F)c1 [GT-07470, 2-(2,4-dioxotetrahydropyrimidin-1(2H)-yl)-5-(4-((4-(4-((4-((3-(methylsulfonyl)benzyl)amino)-5-(trifluoromethyl)pyrimidin-2-yl)amino)phenyl)piperazin-1-yl)methyl)piperidin-1-yl)isoindoline-1,3-dione]

Degradation of substrate protein FAK (substrate protein remaining %) (FAK): A (0%≤substrate protein remaining %≤80%)
Structure (SMILES): CN(c1nccnc1CNc1nc(Nc2ccc(N3CCN(CC4CCN(c5cccc6c5C(=O)N(N5CCC(=O)NC5=O)C6=O)CC4)CC3)cc2)ncc1C(F)(F)F)S(C)(=O)=O [GT-07469, N-(3-(((2-((4-(4-((1-(2-(2,4-dioxotetrahydropyrimidin-1(2H)-yl)-1,3-dioxoisoindolin-4-yl)piperidin-4-yl)methyl)piperazin-1-yl)phenyl)amino)-5-(trifluoromethyl)pyrimidin-4-yl)amino)methyl)pyrazin-2-yl)-N-methylmethanesulfonamide]
inhibition at 0.01 µM ([1]; Table IG2, FAK inhibitor-based): 0 to 5%
inhibition at 0.5 µM ([1]; Table IG2, FAK inhibitor-based): 80 to 100%
inhibition at 0.01 µM ([2]; MDA-MB-231, 10 nM, read-out: Inhibition Rate at 10 nM (%)): 30 to 40%
inhibition at 0.5 µM ([2]; MDA-MB-231, 500 nM, read-out: Inhibition Rate at 500 nM (%)): 50 to 60%

Inhibition Rate at 0.5 μM (%) ([3]; 0.5 μM): a3 (30% < a3 ≤ 40%)
Inhibition Rate at 2 μM (%) ([3]; 2 μM): a5 (53% < a5 ≤ 60%)
Degradation of substrate protein FAK (substrate protein remaining %) (FAK): A (0%≤substrate protein remaining %≤80%)
Structure (SMILES): CS(=O)(=O)c1cccc(CNc2nc(Nc3ccc(N4CCN(Cc5ccc6c(c5)CN(N5CCC(=O)NC5=O)C6=O)CC4)cc3)ncc2C(F)(F)F)c1 [GT-07514, 1-(5-((4-(4-((4-((3-(methylsulfonyl)benzyl)amino)-5-(trifluoromethyl)pyrimidin-2-yl)amino)phenyl)piperazin-1-yl)methyl)-1-oxoisoindolin-2-yl)dihydropyrimidine-2,4 (1H,3H)-dione]
inhibition at 0.01 µM ([1]; Table IG2, FAK inhibitor-based): 30 to 40%
inhibition at 0.5 µM ([1]; Table IG2, FAK inhibitor-based): 80 to 100%

Degradation of substrate protein FAK (substrate protein remaining %) (FAK): A (0%≤substrate protein remaining %≤80%)
Structure (SMILES): CS(=O)(=O)c1cccc(CNc2nc(Nc3ccc(N4CCN(CC5CCN(c6cccc7c6C(=O)N(N6CCC(=O)NC6=O)C7=O)CC5)CC4)cc3)ncc2C(F)(F)F)c1 [GT-07471, 2-(2,4-dioxotetrahydropyrimidin-1(2H)-yl)-4-(4-((4-(4-((4-((3-(methylsulfonyl)benzyl)amino)-5-(trifluoromethyl)pyrimidin-2-yl)amino)phenyl)piperazin-1-yl)methyl)piperidin-1-yl)isoindoline-1,3-dione]

Degradation of substrate protein FAK (substrate protein remaining %) (FAK): A (0%≤substrate protein remaining %≤80%)
Structure (SMILES): CNC(=O)c1ccccc1Nc1cc(Nc2cc(C)c(C3CCN(CC4CCN(c5ccc6c(c5)C(=O)N(N5CCC(=O)NC5=O)C6=O)CC4)CC3)cc2OC(C)C)ncc1C(F)(F)F [GT-07665, 2-((2-((4-(1-((1-(2-(2,4-dioxotetrahydropyrimidin-1(2H)-yl)-1,3-dioxoisoindolin-5-yl)piperidin-4-yl)methyl)piperidin-4-yl)-2-isopropoxy-5-methylphenyl)amino)-5-(trifluoromethyl)pyridin-4-yl)amino)-N-methylbenzamide]

Degradation of substrate protein C-ABL; BCR-ABL (substrate protein remaining %) (C-ABL): A (0%≤substrate protein remaining %≤80%)
Structure (SMILES): Cc1ccc(C(=O)Nc2ccc(CN3CCN(Cc4ccc5c(c4)CN(N4CCC(=O)NC4=O)C5=O)CC3)c(C(F)(F)F)c2)cc1C#Cc1cnc2cccnn12 [GT-08216, N-(4-((4-((2-(2,4-dioxotetrahydropyrimidin-1(2H)-yl)-1-oxoisoindolin-5-yl)methyl)piperazin-1-yl)methyl)-3-(trifluoromethyl)phenyl)-3-(imidazo[1,2-b]pyridazin-3-ylethynyl)-4-methylbenzamide]
inhibition at 0.01 µM [1, 6]: 80 to 100%
inhibition at 0.5 µM [1, 6]: 80 to 100%
inhibition at 0.01 µM [4, 7]: 20 to 30%
inhibition at 0.5 µM [4, 7]: 80 to 100%
inhibition at 0.01 µM ([5]; 10 nM, read-out: Inhibition Rate at 10 nM (%)): 20 to 30%
inhibition at 0.5 µM ([5]; 500 nM, read-out: Inhibition Rate at 500 nM (%)): 80 to 100%

Degradation of substrate protein FAK (substrate protein remaining %) (FAK): A (0%≤substrate protein remaining %≤80%)
Structure (SMILES): CNC(=O)c1ccccc1Nc1cc(Nc2ccc(N3CCN(Cc4ccc5c(c4)C(=O)N(N4CCC(=O)NC4=O)C5=O)CC3)cc2OC)ncc1C(F)(F)F [GT-07661, 2-((2-((4-(4-((2-(2,4-dioxotetrahydropyrimidin-1(2H)-yl)-1,3-dioxoisoindolin-5-yl)methyl)piperazin-1-yl)-2-methoxyphenyl)amino)-5-(trifluoromethyl)pyridin-4-yl)amino)-N-methylbenzamide]
inhibition at 0.01 µM ([4]; Table IG1, FAK inhibitor-based): 30 to 40%
inhibition at 0.5 µM ([4]; Table IG1, FAK inhibitor-based): 40 to 60%
